Laboratory results reported in publication PMC2834284 (Journal of medicinal chemistry, 2010).
In brackets after ≈: the same amount, converted by molar mass. Entries after “also recorded” stand apart in the source; their conditions may differ.

How the values were obtained:
rat neonatal microglia = assay: Microglia LDH release; format: cell-based; details: for cytotoxicity (lactate dehydrogenase release) at highest concentration tested: 10 μM; for LDH LDH50: concentration causing 50% of maximal LDH release triggered by 0.1% Triton X-100
in vitro = details: dog, MDCK-MDR1, pH 7.4
[1] = system: methicillin-resistant Staphylococcus aureus; details: cited from earlier work
[2] = system: Mycobacterium tuberculosis; details: cited from earlier work
Staphylococcus aureus = details: cited from earlier work
[3] = system: Cryptococcus neoformans ATCC 90113; assay: In vitro antimicrobial assay, C. neoformans; format: cell-based; details: ATCC90113, read-out: C. neoformans IC50
[4] = system: Plasmodium falciparum (D6 clone); assay: In vitro antimalarial assay; format: cell-based; details: for IC50: Plasmodium falciparum, D6, 72 h, read-out: P. falciparum (D6 clone) IC50
[5] = system: malarial parasites in mice; details: oral administration 2×100 μmol/Kg; cited from earlier work
GSK-3β = details: panel of CDK-1, PKA, CDK-5, MAPK, GSK-3α; cited from earlier work
[6] = system: Plasmodium berghei infected mice; assay: In vivo antimalarial assay, oral single dose
[7] = Stability in aqueous solution; format: physicochemical; details: over twenty-four months, exposure to light, room temperature, 0.05 N HCl aqueous solution (20 mg/mL)
[8] = system: Candida albicans ATCC 90028; assay: In vitro antimicrobial assay, C. albicans; format: cell-based; details: ATCC90028, read-out: C. albicans IC50
CDK-5 = details: panel of CDK-1, PKA, CDK-5, MAPK, GSK-3α; cited from earlier work
[9] = system: mice infected with malarial parasites; assay: In vivo antimalarial assay, intraperitoneal administration; details: for toxicity / adverse reactions: i.p. 10×3 mg/kg in infected mice; for Cure (number of mice without parasitemia through day 28 post infection): of 5 mice
[10] = system: Mycobacterium intracellulare ATCC 23068; assay: In vitro antimicrobial assay, M. intracellulare; format: cell-based; details: ATCC23068, read-out: M. intracellulare IC50
M. tuberculosis (H37Rv) = assay: In vitro activity against M. tuberculosis; format: cell-based; details: Mycobacterium tuberculosis, read-out: M. tuberculosis (H37Rv) MIC
[11] = system: Plasmodium falciparum (W2 clone); assay: In vitro antimalarial assay; format: cell-based; details: W2, 72 h, read-out: P. falciparum (W2 clone) IC50
Vero cells = details: African green monkey
[12] = system: Plasmodium berghei infected mice; assay: In vivo antimalarial assay, multiple oral dose; details: 3×5 mg/Kg
[13] = system: mice inoculated with P. berghei; assay: Initial in vivo evaluation; details: 3×10 mg/kg P.O.
[14] = i.p. 10×3 mg/kg, mean parasitemia in control group as 100%

COC(=O)c1cc2c([nH]c3ccccc32)c(C2=C[C@@]3(O)CC/C=C\CCCCN4CC[C@@H]2[C@]2(C[C@@H]5/C=C\CCCCN5[C@H]23)C4)n1 [Compound 21b, Methyl manzamine A-3-carboxylate]
cytotoxicity (lactate dehydrogenase release) at highest concentration tested (rat neonatal microglia): minimal cytotoxicity; also recorded: no toxicity | LDH LDH50 (rat neonatal microglia): >10 µM

CC(C)(C)Cn1c2ccccc2c2ccnc(C3=C[C@@]4(O)CC/C=C\CCCCN5CC[C@@H]3[C@]3(C[C@@H]6/C=C\CCCCN6[C@H]34)C5)c21 [Compound 6g, 9N-neopentylmanzamine A]
cytotoxicity (lactate dehydrogenase release) at highest concentration tested (rat neonatal microglia): minimal cytotoxicity; also recorded: no toxicity | LDH LDH50 (rat neonatal microglia): >10 µM

O[C@]12C=C(c3nccc4c3[nH]c3ccccc34)[C@@H]3CCN(CCCC/C=C\CC1)C[C@@]31C[C@@H]3/C=C\CCCCN3[C@H]12 [Compound 1, manzamine A]
efflux ratio at 2 h, 50 μM (in vitro): < 1 | IC50 against methicillin-resistant Staphylococcus aureus [1]: 0.7 µg/mL (≈ 1.28 µM) | inhibition of Mycobacterium tuberculosis [2]: 98-99% | IC50 against Staphylococcus aureus (Staphylococcus aureus): 0.5 µg/mL (≈ 0.911 µM) | IC50 [3]: 1.5 µg/mL (≈ 2.73 µM) | IC50 [4]: 0.0045 µg/mL (≈ 0.0082 µM) | reduction in parasitemia [5]: 90% | inhibition of GSK-3β (GSK-3β): specifically inhibited | behavioral signs of toxicity ([6]; single oral dose 100 mg/kg): did not show any behavioral signs of toxicity | signs of toxicity ([6]; single oral dose 200 or 300 mg/kg): began to exhibit signs of toxicity beyond weight loss | stability (decomposition) in aqueous solution [7]: No significant decomposition | IC50 [8]: 2 µg/mL (≈ 3.64 µM) | inhibition of CDK-5 (CDK-5): specifically inhibited | cytotoxicity (lactate dehydrogenase release) at highest concentration tested (rat neonatal microglia): minimal cytotoxicity | LDH LDH50 (rat neonatal microglia): >10 µM | Survival (number of animal survived day 28/total animal in group) ([9]; i.p. 10×3 mg/kg): 0/5 | toxicity / adverse reactions [9]: toxic | %parasitemia suppression Day 5 [9, 14]: 100% | Cure (number of mice without parasitemia through day 28 post infection) ([9]; i.p. 10×3 mg/kg): 0/5 | IC50 [10]: 0.35 µg/mL (≈ 0.638 µM) | MIC (M. tuberculosis (H37Rv)): 1.5 µg/mL (≈ 2.73 µM) | IC50 [11]: 0.008 µg/mL (≈ 0.0146 µM)

O[C@]12C=C(c3nccc4c3[nH]c3ccccc34)[C@@H]3CCN(CCCCCCCC1)C[C@@]31C[C@@H]3CCCCCCN3[C@H]12 [Compound 3, 15,16,32,33-tetrahydromanzamine A]
IC50 [4]: 0.082 µg/mL (≈ 0.148 µM)

N/N=C1/CCCN2[C@@H](CC1)C[C@]13CN4CCCC/C=C\CC[C@](O)(C=C(c5nccc6c5[nH]c5c(O)cccc56)[C@@H]1CC4)[C@H]23 [Compound 15, Manzamine F-31-hydrazone]
IC50 [4]: 0.029 µg/mL (≈ 0.0488 µM) | no toxicity against Vero cells at the highest tested concentration (Vero cells): > 4.6 µg/mL

CC(=O)Oc1cccc2c1[nH]c1c(C3=C[C@@]4(O)CC/C=C\CCCCN5CC[C@@H]3[C@]3(C[C@@H]6/C=C\CCCCN6[C@H]34)C5)nccc12 [Compound 9, 8-Acetoxymanzamine A]
IC50 [3]: 1.5 µg/mL (≈ 2.47 µM) | IC50 [8]: 1.5 µg/mL (≈ 2.47 µM) | IC50 [10]: 0.1 µg/mL (≈ 0.165 µM)

CC[C@@]1(O)CCCN2[C@@H](CC1)C[C@]13CN4CCCC/C=C\CC[C@](O)(C=C(c5nccc6c5[nH]c5c(O)cccc56)[C@@H]1CC4)[C@H]23 [Compound 18, 31-Ethylmanzamine F]
IC50 [11]: 0.086 µg/mL (≈ 0.141 µM) | no toxicity against Vero cells at the highest tested concentration (Vero cells): > 4.6 µg/mL

CCCCn1c2ccccc2c2ccnc(C3=C[C@@]4(O)CC/C=C\CCCCN5CC[C@@H]3[C@]3(C[C@@H]6/C=C\CCCCN6[C@H]34)C5)c21 [Compound 6d, 9N-butylmanzamine A]
cytotoxicity (lactate dehydrogenase release) at highest concentration tested (rat neonatal microglia): minimal cytotoxicity; also recorded: no toxicity | LDH LDH50 (rat neonatal microglia): >10 µM

Oc1cccc2c1[nH]c1c(C3=C[C@@]4(O)CC/C=C\CCCCN5CC[C@@H]3[C@]3(C[C@@H]6CC[C@H](O)CCCN6[C@H]34)C5)nccc12 [Compound 16, 31β-Hydroxymanzamine F]
P. falciparum (D6 clone) IC50 ([4]; chloroquine sensitive D6 clone, 72 h): did not improve the antimalarial activity

O[C@]12C=C(c3nccc4c3[nH]c3ccccc34)[C@@H]3CCN(CCCC/C=C\CC1)C[C@@]31C[C@@H]3CCCCCCN3[C@H]12 [Compound 5, Dihydromanzamine A]
IC50 [4]: 0.2 µg/mL (≈ 0.363 µM)

[O-][N+]12CCCC/C=C\CC[C@]3(O)C=C(c4nccc5c4[nH]c4ccccc45)[C@H](CC1)[C@]1(C[C@@H]4/C=C\CCCC[N@+]4([O-])[C@H]13)C2 [Compound 13, 21, 27-N-oxamanzamine A]
IC50 [4]: 0.017 µg/mL (≈ 0.0293 µM) | IC50 [11]: 0.067 µg/mL (≈ 0.115 µM)

COc1ccc2[nH]c3c(C4=C[C@@]5(O)CC/C=C\CCCCN6CC[C@@H]4[C@]4(C[C@@H]7/C=C\CCCCN7[C@H]45)C6)nccc3c2c1 [Compound 21a, 6-Methoxymanzamine A]
cytotoxicity (lactate dehydrogenase release) at highest concentration tested (rat neonatal microglia): minimal cytotoxicity; also recorded: no toxicity | LDH LDH50 (rat neonatal microglia): >10 µM

CCN(CC)CCCC(C)Nc1ccnc2cc(Cl)ccc12 (centres unmarked) [Chloroquine]
MST Days [12]: > 30 days | Inhibition of Parasitemia (%) ([12]; day 5 post infection vs untreated controls): 88% | Average % Parasitemia ([12]; day 7 post infection): 4.5% | Average % Parasitemia ([12]; day 10 post infection): 7.8% | Average % Parasitemia ([12]; day 14 post infection): 13.5% | Average % Parasitemia ([12]; day 21 post infection): 21.7% | Average % Parasitemia ([12]; day 28 post infection): 39.3% | mean survival time [13]: 14.3 days | IC50 [4]: 0.016 µg/mL (≈ 0.05 µM) | IC50 [11]: 0.155 µg/mL (≈ 0.485 µM)

Oc1cccc2c1[nH]c1c(C3=C[C@@]4(O)CC/C=C\CCCCN5CC[C@@H]3[C@]3(CC6/C=C\CCCCN6[C@H]34)C5)nccc12 (some centres unmarked) [Compound 2, 8-hydroxymanzamine A]
inhibition of Mycobacterium tuberculosis [2]: 98-99% | IC50 [3]: 2 µg/mL (≈ 3.54 µM) | IC50 [4]: 0.006 µg/mL (≈ 0.0106 µM) | reduction in parasitemia [5]: 90% | IC50 [8]: 3.5 µg/mL (≈ 6.2 µM) | Survival (number of animal survived day 28/total animal in group) ([9]; i.p. 10×3 mg/kg): 5/5 | toxicity / adverse reactions [9]: mild reversible weight loss | MST (mean survival time) ([9]; i.p. 10×3 mg/kg, * death related to toxicity): > 28 days | %parasitemia suppression Day 5 [9, 14]: 100% | %parasitemia suppression Day 7 [9, 14]: 100% | Cure (number of mice without parasitemia through day 28 post infection) ([9]; i.p. 10×3 mg/kg): 4/5 | IC50 [10]: 0.1 µg/mL (≈ 0.177 µM) | IC50 [11]: 0.008 µg/mL (≈ 0.0142 µM)

O=C(O)c1cn(C2CC2)c2cc(N3CCNCC3)c(F)cc2c1=O [Ciprofloxacin, reference compound]
IC50 [10]: 0.3 µg/mL (≈ 0.905 µM)

O=C1CCCN2[C@@H](CC1)C[C@]13CN4CCCC/C=C\CC[C@](O)(C=C(c5nccc6c5[nH]c5c(O)cccc56)C1CC4)[C@H]23 (some centres unmarked) [Compound 14, manzamine F]
IC50 [3]: 6.5 µg/mL (≈ 11.2 µM) | IC50 [4]: 0.78 µg/mL (≈ 1.34 µM)

C[C@@H]1CC[C@H]2[C@@H](C)C(=O)O[C@@H]3O[C@@]4(C)CC[C@@H]1[C@]32OO4 [Artemisinin, reference compound]
IC50 [11]: 0.008 µg/mL (≈ 0.0283 µM)

CC(C)CCn1c2ccccc2c2ccnc(C3=C[C@@]4(O)CC/C=C\CCCCN5CC[C@@H]3[C@]3(C[C@@H]6/C=C\CCCCN6[C@H]34)C5)c21 [Compound 6f, 9N-isopentylmanzamine A]
LDH LDH50 (rat neonatal microglia): >10 µM

C[C@@H]1[C@H](O)[C@@H](C)/C=C/C=C/C=C/C=C/C=C/C=C/C=C/[C@H](O[C@@H]2O[C@H](C)[C@@H](O)[C@H](N)[C@@H]2O)C[C@@H]2O[C@](O)(C[C@@H](O)C[C@@H](O)[C@H](O)CC[C@@H](O)C[C@@H](O)CC(=O)O[C@H]1C)C[C@H](O)[C@H]2C(=O)O [Amphotericin B, reference compound]
IC50 [3]: 0.75 µg/mL (≈ 0.812 µM)
